# Results from publication PMC3925040 (British Journal of Pharmacology, 2014).
# What was measured:
# [1] = target: T1, transient receptor potential melastatin 3 (TRPM3) (Mus musculus, UniProt J9SQF3); test: whole-cell patch clamp inhibition of PS-evoked current in HEK293 cells; format: cell-based; conditions: HEK293, read-out: % inhibition at 21 μM
# [2] = target: T1, transient receptor potential melastatin 3 (TRPM3); test: Fura2 Ca2+ imaging in HEK293 cells, inhibition of PS response at […]; format: cell-based
# T1 sequence (J9SQF3 1-1709 isoform J9SQF3-12): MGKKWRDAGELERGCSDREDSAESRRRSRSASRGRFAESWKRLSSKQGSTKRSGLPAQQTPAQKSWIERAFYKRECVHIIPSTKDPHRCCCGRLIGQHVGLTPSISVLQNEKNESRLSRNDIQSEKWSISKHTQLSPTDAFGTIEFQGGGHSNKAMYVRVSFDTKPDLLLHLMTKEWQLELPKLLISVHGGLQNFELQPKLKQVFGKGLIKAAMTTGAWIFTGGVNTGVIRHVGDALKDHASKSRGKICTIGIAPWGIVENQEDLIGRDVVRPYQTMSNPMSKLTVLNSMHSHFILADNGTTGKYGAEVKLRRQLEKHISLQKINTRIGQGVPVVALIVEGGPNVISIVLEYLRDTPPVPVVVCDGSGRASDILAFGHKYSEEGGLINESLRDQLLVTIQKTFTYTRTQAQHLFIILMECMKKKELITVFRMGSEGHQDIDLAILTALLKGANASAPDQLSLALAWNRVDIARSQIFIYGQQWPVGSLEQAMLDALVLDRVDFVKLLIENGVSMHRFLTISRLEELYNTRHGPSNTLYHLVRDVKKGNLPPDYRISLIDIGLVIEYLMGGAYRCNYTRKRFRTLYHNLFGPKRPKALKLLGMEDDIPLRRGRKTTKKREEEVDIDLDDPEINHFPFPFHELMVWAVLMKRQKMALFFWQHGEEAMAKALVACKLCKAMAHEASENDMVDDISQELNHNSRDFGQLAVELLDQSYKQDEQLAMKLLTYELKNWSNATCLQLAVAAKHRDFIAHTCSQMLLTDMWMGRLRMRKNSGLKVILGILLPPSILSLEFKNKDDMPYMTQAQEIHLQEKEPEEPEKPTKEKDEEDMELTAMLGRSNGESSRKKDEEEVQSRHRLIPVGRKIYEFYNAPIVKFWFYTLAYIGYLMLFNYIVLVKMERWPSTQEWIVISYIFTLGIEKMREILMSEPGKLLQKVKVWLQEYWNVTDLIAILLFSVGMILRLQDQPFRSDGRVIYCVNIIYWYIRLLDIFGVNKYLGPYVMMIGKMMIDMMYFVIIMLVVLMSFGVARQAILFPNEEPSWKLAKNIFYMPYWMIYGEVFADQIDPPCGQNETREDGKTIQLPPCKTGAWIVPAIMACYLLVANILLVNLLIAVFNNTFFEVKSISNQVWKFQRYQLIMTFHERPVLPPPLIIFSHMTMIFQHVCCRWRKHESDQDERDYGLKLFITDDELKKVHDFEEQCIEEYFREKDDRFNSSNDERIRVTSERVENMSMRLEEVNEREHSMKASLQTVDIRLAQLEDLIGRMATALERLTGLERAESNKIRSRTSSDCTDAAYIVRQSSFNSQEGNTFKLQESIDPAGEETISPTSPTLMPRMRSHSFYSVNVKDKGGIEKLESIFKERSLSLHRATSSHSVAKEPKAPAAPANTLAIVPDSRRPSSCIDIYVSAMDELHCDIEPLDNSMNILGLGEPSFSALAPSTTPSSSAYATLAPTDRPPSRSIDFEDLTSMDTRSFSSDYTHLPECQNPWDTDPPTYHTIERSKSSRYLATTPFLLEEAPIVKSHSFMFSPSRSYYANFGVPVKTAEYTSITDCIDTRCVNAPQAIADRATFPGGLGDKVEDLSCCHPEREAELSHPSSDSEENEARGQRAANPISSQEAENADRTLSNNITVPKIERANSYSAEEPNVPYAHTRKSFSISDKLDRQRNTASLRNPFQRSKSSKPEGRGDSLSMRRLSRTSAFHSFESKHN
Structure (SMILES),inhibition at 21 µM [1],"Fura2 Ca2+ imaging in HEK293 cells, inhibition of PS response at 50 μM [2]"
COCCOC(=O)C1=C(C)NC(C)=C(C(=O)OC(C)C)C1c1cccc([N+](=O)[O-])c1 (centres unmarked) [nimodipine],70.2%,–
"COC(=O)C1=C(C)NC(C)=C(C(=O)OCCN(C)Cc2ccccc2)C1c1cccc([N+](=O)[O-])c1 (centres unmarked) [Nic, nicardipine]",–,nicardipine also inhibited PS-induced TRPM3 activation
